Results from PubChem BioAssay (NCI).
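Briefly, cells in 96-well plates were exposed to five compound concentrations for 48 h, and endpoints were estimated by linear interpolation. TGI is the concentration that stops growth completely.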

Assays:
Test in all cases: NCI-60 cell line screen, 48 h
[1] = test system: 786-0 renal
[2] = test system: A498 renal
[3] = test system: A549 NSCLC
[4] = test system: ACHN renal
[5] = test system: BT-549 breast
[6] = test system: CAKI-1 renal
[7] = test system: CCRF-CEM leukemia
[8] = test system: COLO 205 colon
[9] = test system: DU-145 prostate
[10] = test system: EKVX NSCLC
[11] = test system: HCC-2998 colon
[12] = test system: HCT-116 colon
[13] = test system: HCT-15 colon
[14] = test system: HL-60(TB) leukemia
[15] = test system: HOP-62 NSCLC
[16] = test system: HOP-92 NSCLC
[17] = test system: HS 578T breast
[18] = test system: HT29 colon
[19] = test system: IGROV1 ovarian
[20] = test system: K-562 leukemia
[21] = test system: KM12 colon
[22] = test system: LOX IMVI melanoma
[23] = test system: M14 melanoma
[24] = test system: MCF7 breast
[25] = test system: MDA-MB-231 breast
[26] = test system: MDA-MB-435
[27] = test system: MDA-N
[28] = test system: MOLT-4 leukemia
[29] = test system: NCI-H226 lung
[30] = test system: NCI-H23 lung
[31] = test system: NCI-H460 lung
[32] = test system: NCI/ADR-RES ovarian
[33] = test system: OVCAR-3 ovarian
[34] = test system: OVCAR-4 ovarian
[35] = test system: OVCAR-5 ovarian
[36] = test system: OVCAR-8 ovarian
[37] = test system: PC-3 prostate
[38] = test system: RPMI-8226 leukemia
[39] = test system: RXF 393 renal
[40] = test system: SF-268 CNS
[41] = test system: SF-295 CNS
[42] = test system: SF-539 CNS
[43] = test system: SK-MEL-2 melanoma
[44] = test system: SK-MEL-5 melanoma
[45] = test system: SK-OV-3 ovarian
[46] = test system: SN12C renal
[47] = test system: SNB-19 CNS
[48] = test system: SNB-75 CNS
[49] = test system: SR leukemia
[50] = test system: SW-620 colon
[51] = test system: T-47D breast
[52] = test system: TK-10 renal
[53] = test system: U251 CNS
[54] = test system: UACC-257 melanoma
[55] = test system: UACC-62 melanoma
[56] = test system: UO-31 renal
[57] = test system: NCI-H522 lung
[58] = test system: SK-MEL-28 melanoma
[59] = test system: MALME-3M melanoma

Cn1c(-c2ccccc2)cc(-c2cccs2)c1-c1ccsc1
TGI [1]: > 100 µM
TGI [2]: > 100 µM
TGI [3]: > 100 µM
TGI [4]: > 100 µM
TGI [5]: > 100 µM
TGI [6]: > 100 µM
TGI [7]: > 100 µM
TGI [8]: > 100 µM
TGI [9]: > 100 µM
TGI [10]: > 100 µM
TGI [11]: > 100 µM
TGI [12]: > 100 µM
TGI [13]: > 100 µM
TGI [14]: > 100 µM
TGI [15]: > 100 µM
TGI [16]: > 100 µM
TGI [17]: > 100 µM
TGI [18]: > 100 µM
TGI [19]: > 100 µM
TGI [20]: > 100 µM
TGI [21]: > 100 µM
TGI [22]: > 100 µM
TGI [23]: > 100 µM
TGI [24]: > 100 µM
TGI [25]: > 100 µM
TGI [26]: > 100 µM
TGI [27]: > 100 µM
TGI [28]: > 100 µM
TGI [29]: > 100 µM
TGI [30]: > 100 µM
TGI [31]: > 100 µM
TGI [32]: > 100 µM
TGI [33]: > 100 µM
TGI [34]: > 100 µM
TGI [35]: > 100 µM
TGI [36]: > 100 µM
TGI [37]: > 100 µM
TGI [38]: > 100 µM
TGI [39]: > 100 µM
TGI [40]: > 100 µM
TGI [41]: > 100 µM
TGI [42]: > 100 µM
TGI [43]: > 100 µM
TGI [44]: > 100 µM
TGI [45]: > 100 µM
TGI [46]: > 100 µM
TGI [47]: > 100 µM
TGI [48]: > 100 µM
TGI [49]: > 100 µM
TGI [50]: > 100 µM
TGI [51]: > 100 µM
TGI [52]: > 100 µM
TGI [53]: > 100 µM
TGI [54]: > 100 µM
TGI [55]: > 100 µM
TGI [56]: > 100 µM

Cc1c(C(=O)O)n2c(C)nnc2c2ccccc12
TGI [1]: > 100 µM
TGI [2]: > 100 µM
TGI [3]: > 100 µM
TGI [4]: > 100 µM
TGI [5]: > 100 µM
TGI [6]: > 100 µM
TGI [7]: > 100 µM
TGI [8]: > 100 µM
TGI [9]: > 100 µM
TGI [10]: > 100 µM
TGI [11]: > 100 µM
TGI [12]: > 100 µM
TGI [13]: > 100 µM
TGI [15]: > 100 µM
TGI [16]: > 100 µM
TGI [17]: > 100 µM
TGI [18]: > 100 µM
TGI [19]: > 100 µM
TGI [20]: > 100 µM
TGI [21]: > 100 µM
TGI [22]: > 100 µM
TGI [23]: > 100 µM
TGI [24]: > 100 µM
TGI [25]: > 100 µM
TGI [26]: > 100 µM
TGI [27]: > 100 µM
TGI [28]: > 100 µM
TGI [29]: > 100 µM
TGI [30]: > 100 µM
TGI [31]: > 100 µM
TGI [57]: > 100 µM
TGI [32]: > 100 µM
TGI [33]: > 100 µM
TGI [34]: > 100 µM
TGI [35]: > 100 µM
TGI [36]: > 100 µM
TGI [37]: > 100 µM
TGI [39]: > 100 µM
TGI [40]: > 100 µM
TGI [41]: > 100 µM
TGI [42]: > 100 µM
TGI [43]: > 100 µM
TGI [58]: > 100 µM
TGI [44]: > 100 µM
TGI [45]: > 100 µM
TGI [46]: > 100 µM
TGI [48]: > 100 µM
TGI [49]: > 100 µM
TGI [50]: > 100 µM
TGI [51]: > 100 µM
TGI [52]: > 100 µM
TGI [53]: > 100 µM
TGI [54]: > 100 µM
TGI [55]: > 100 µM
TGI [56]: > 100 µM

Cc1ccc(O)c(C2=CC3=NNC(=O)C3C(c3cccc(Br)c3)C2)c1 (configuration not stated)
TGI [1]: > 75 µM
TGI [2]: > 75 µM
TGI [3]: > 75 µM
TGI [4]: > 75 µM
TGI [5]: 64.1 µM
TGI [6]: > 75 µM
TGI [7]: > 75 µM
TGI [8]: 22.8 µM
TGI [9]: > 75 µM
TGI [10]: > 75 µM
TGI [11]: 31.7 µM
TGI [12]: > 75 µM
TGI [13]: > 75 µM
TGI [14]: > 75 µM
TGI [15]: > 75 µM
TGI [16]: > 75 µM
TGI [17]: > 75 µM
TGI [18]: > 75 µM
TGI [19]: > 75 µM
TGI [20]: > 75 µM
TGI [21]: 39.5 µM
TGI [22]: 27.3 µM
TGI [23]: > 75 µM
TGI [59]: 71.1 µM
TGI [24]: 31.7 µM
TGI [25]: 59.4 µM
TGI [26]: > 75 µM
TGI [27]: > 75 µM
TGI [28]: > 75 µM
TGI [30]: > 75 µM
TGI [31]: > 75 µM
TGI [32]: > 75 µM
TGI [33]: 68.7 µM
TGI [34]: 37 µM
TGI [35]: 68.5 µM
TGI [36]: 64.8 µM
TGI [37]: > 75 µM
TGI [38]: 72.8 µM
TGI [39]: 28.2 µM
TGI [40]: > 75 µM
TGI [41]: 51.6 µM
TGI [42]: > 75 µM
TGI [43]: > 75 µM
TGI [58]: > 75 µM
TGI [44]: > 75 µM
TGI [45]: 63.9 µM
TGI [46]: 63.5 µM
TGI [47]: > 75 µM
TGI [48]: 70 µM
TGI [49]: > 75 µM
TGI [50]: > 75 µM
TGI [51]: > 75 µM
TGI [52]: 41.3 µM
TGI [53]: > 75 µM
TGI [54]: > 75 µM
TGI [55]: 70.9 µM
TGI [56]: > 75 µM

O=c1c(=O)c2cscc2c1=O
TGI [1]: 10.1 µM
TGI [2]: > 25 µM
TGI [3]: > 25 µM
TGI [4]: 8.37 µM
TGI [5]: 8.72 µM
TGI [6]: 8.49 µM
TGI [8]: 8.61 µM
TGI [9]: 11.4 µM
TGI [10]: 10.7 µM
TGI [11]: 6.44 µM
TGI [12]: 9.66 µM
TGI [13]: 14.1 µM
TGI [15]: 10.8 µM
TGI [16]: 11.2 µM
TGI [17]: > 25 µM
TGI [18]: 10.6 µM
TGI [19]: 8.4 µM
TGI [20]: 6.5 µM
TGI [21]: 12.7 µM
TGI [22]: 10 µM
TGI [23]: 8.85 µM
TGI [59]: 8.39 µM
TGI [24]: 15.3 µM
TGI [25]: 10 µM
TGI [26]: 9.85 µM
TGI [27]: 9.72 µM
TGI [28]: 10 µM
TGI [29]: 10.5 µM
TGI [30]: 12.3 µM
TGI [31]: 23.3 µM
TGI [32]: > 25 µM
TGI [33]: 15.1 µM
TGI [34]: 11.1 µM
TGI [35]: 9.61 µM
TGI [36]: 16.4 µM
TGI [37]: 8.6 µM
TGI [38]: 12.1 µM
TGI [39]: 9.2 µM
TGI [40]: 8.82 µM
TGI [41]: > 25 µM
TGI [42]: 9.07 µM
TGI [43]: 9.31 µM
TGI [58]: 9.37 µM
TGI [44]: 7.89 µM
TGI [45]: > 25 µM
TGI [46]: 13.3 µM
TGI [47]: 15.2 µM
TGI [48]: 8.37 µM
TGI [49]: 1.1 µM
TGI [50]: 11.2 µM
TGI [51]: 11.8 µM
TGI [52]: 8.04 µM
TGI [53]: 9.19 µM
TGI [54]: 7.96 µM
TGI [55]: 8.75 µM
TGI [56]: 9.6 µM

CCN=c1nc2sc3c(c2c(NC(=S)NCC)s1)CCN(N1CCc2c(sc4nc(=NCC)sc(NC(=S)NCC)c24)C1)C3
TGI [1]: > 100 µM
TGI [2]: > 100 µM
TGI [3]: > 100 µM
TGI [4]: > 100 µM
TGI [5]: > 100 µM
TGI [6]: > 100 µM
TGI [7]: > 100 µM
TGI [8]: > 100 µM
TGI [9]: > 100 µM
TGI [10]: > 100 µM
TGI [11]: > 100 µM
TGI [12]: 52.3 µM
TGI [13]: > 100 µM
TGI [14]: > 100 µM
TGI [15]: > 100 µM
TGI [16]: 84.7 µM
TGI [17]: > 100 µM
TGI [18]: > 100 µM
TGI [19]: > 100 µM
TGI [20]: > 100 µM
TGI [21]: > 100 µM
TGI [22]: > 100 µM
TGI [23]: > 100 µM
TGI [59]: > 100 µM
TGI [24]: > 100 µM
TGI [25]: 82.6 µM
TGI [26]: > 100 µM
TGI [27]: > 100 µM
TGI [28]: > 100 µM
TGI [29]: > 100 µM
TGI [30]: > 100 µM
TGI [31]: > 100 µM
TGI [57]: > 100 µM
TGI [32]: > 100 µM
TGI [33]: > 100 µM
TGI [34]: > 100 µM
TGI [35]: > 100 µM
TGI [36]: > 100 µM
TGI [37]: > 100 µM
TGI [39]: 53.2 µM
TGI [40]: > 100 µM
TGI [41]: > 100 µM
TGI [42]: 39.5 µM
TGI [43]: > 100 µM
TGI [58]: > 100 µM
TGI [44]: > 100 µM
TGI [45]: > 100 µM
TGI [46]: > 100 µM
TGI [47]: > 100 µM
TGI [48]: > 100 µM
TGI [49]: > 100 µM
TGI [50]: > 100 µM
TGI [51]: > 100 µM
TGI [52]: > 100 µM
TGI [53]: > 100 µM
TGI [54]: > 100 µM
TGI [55]: > 100 µM
TGI [56]: > 100 µM
